Earlier results, collected in patent publication US20170210704A1, “DEUTERO-PHENFORMIN DERIVATIVES” (Enlibrium Inc, priority 2016, published 2017).

How the values were obtained:
[1] = patients treated for type 2 diabetes
[2] = system: cytochrome P450 2D6; conditions: 2D6 polymorphisms in humans; essentially no metabolism in poor metabolizers

risk of lactic acidosis [1]	metabolism in ultrarapid metabolizers relative to poor metabolizers [2] [fold]	SMILES
0.6 events per 1,000 patient years	200	[H]/N=C(/N)N/C(=N/[H])NCCc1ccccc1 [phenformin, Phenformin]
0.1 events per 1,000 patient years	–	CN(C)C(=N)N=C(N)N [metformin, Metformin]
